Measurements from patent US20120196899A1, “METHODS AND PRODUCTS FOR TREATING INFLAMMATION” (Rock Creek Pharmaceuticals, Inc., priority 2010, published 2012).
Like-named read-outs stand apart in the source and are kept apart here.

Assay: Plasma toxicokinetics after single i.v. bolus
Format: in vivo, Sprague-Dawley rats
Conditions: for concentration at 0.5 h / concentration at 1 h / concentration at 2 h / concentration at 4 h / concentration at 6 h / concentration at 8 h / AUC(0-inf) / MRT / Vd / half-life: Sprague-Dawley, rat, plasma; for concentration at 0.5 h / concentration at 1 h / concentration at 2 h / concentration at 4 h / concentration at 6 h / concentration at 8 h: intravenous, read-out: Avg. Conc. rat plasma; for AUC(0-inf) / MRT / Vd / half-life: iv; for half-life: read-out: t1/2 (converted)
Method: Six rats (3 males and 3 females) were dosed per dose group. […] Plasma and brain homogenates were stored at −80° C. until analysis.
An additional 48 rats (24 males and 24 females) received a single intravenous dose via the tail vein at the same doses as mentioned above. At 30 and 360 minutes post administration, 6 rats (3 males and 3 females) per dose group, per time point were euthanized, bled via cardiac puncture, and perfused, and brains were collected. The brains were homogenized. Blood was spun, and plasma was collected. Plasma and brain homogenate were stored at −80° C.
Four aliquots of each dose level formulation were collected and stored at −80° C. The test compound, corresponding dose level, number of animals, and sample collection times for Phase I of the study are shown in Table 3. The test compound, corresponding dose level, number of animals, and sample collection times for Phase II of the study are shown in Table 4. The physical signs of each animal were monitored following administration of the test compound.
The animals were weighed prior to dosing and received a single i.v. dose of either test compound at a volume of 5 mL/kg. Blood was collected via the venus plexus (retro-orbital) into tubes containing (K2) EDTA. No more than 0.5 mL was collected per time point. […] The brain was removed, weighed, homogenized in sterile 0.9% saline at a volume equal to its weight, and stored at −80° C.
Plasma was separated according to the instructions for MICROTAINER® brand collection tubes (3 minutes, 2000×g). Plasma was decanted into microfuge tubes and stored at −80° C. Remaining test compound was stored at −80° C.
The signal was optimized for each compound by electrospray ionization (ESI) positive or negative ionization mode. A single ion mode (SIM) scan was used to optimize the Fragmentor for the precursor ion and a product ion analysis was used to identify the best fragment for analysis and to optimize the collision energy. The fragment which gave the most sensitive and specific signal was chosen.
Sample preparation. […] The amount of the test agent in the supernatant was determined by liquid chromatography tandem mass spectrometry (LC/MS/MS).
Analysis. Samples were analyzed by LC/MS/MS using an Agilent 6410 mass spectrometer coupled with an Agilent 1200 high pressure liquid chromatography (HPLC) and a CTC PAL chilled autosampler, all controlled by MassHunter software (Agilent). After separation on a hydrophilic interaction liquid chromatography (HILIC) HPLC column (Sepax) using an acetonitrile-ammonium acetate/acetic acid gradient system, peaks were analyzed by mass spectrometry (MS) using ESI ionization in multiple reaction monitoring (MRM) mode. MassHunter software was used to calculate the concentration of the test compounds in samples from the peak area using the appropriate calibration curves.
Calibration samples. Calibration curves were determined for both rat plasma and brain homogenate. Calibration samples were prepared by diluting a 50× stock solution of the test compound in PBS with blank matrix to the appropriate concentration and these samples were prepared as described above in the sample preparation.

[1] = female, 0.1 mg/kg, Anatabine 0.1 mg/kg, female
[2] = female, 0.75 mg/kg, Anatabine 0.75 mg/kg, female
[3] = female, 1 mg/kg, Anatabine 1.0 mg/kg, female
[4] = male, 0.1 mg/kg, Anatabine 0.1 mg/kg, male
[5] = male, 0.75 mg/kg, Anatabine 0.75 mg/kg, male
[6] = male, 1 mg/kg, Anatabine 1.0 mg/kg, male

Work on `C1=CCC(c2cccnc2)NC1` (racemic) [Anatabine, 1,2,3,6-tetrahydro-[2,3′]bipyridinyl] yielded a concentration at 0.5 h (female, 0.1 mg/kg, Anatabine 0.1 mg/kg, female, 0.5 hr (2nd 0.5 hr line)) of 31.7 ng/mL, a concentration at 1 h [1] of 11 ng/mL and a concentration at 2 h [1] of 6.7 ng/mL. It also gave a concentration at 4 h [1] of 4 ng/mL, a concentration at 6 h (female, 0.1 mg/kg, Anatabine 0.1 mg/kg, female, 6 hr (1st 6 hr line, N=3)) of 3.7 ng/mL and a concentration at 6 h (female, 0.1 mg/kg, Anatabine 0.1 mg/kg, female, 6 hr (2nd 6 hr line, N=1)) of 3 ng/mL. It also gave a concentration at 0.5 h (female, 0.75 mg/kg, Anatabine 0.75 mg/kg, female, 0.5 hr (1st 0.5 hr line)) of 190 ng/mL, a concentration at 0.5 h (female, 0.75 mg/kg, Anatabine 0.75 mg/kg, female, 0.5 hr (2nd 0.5 hr line)) of 354 ng/mL and a concentration at 1 h [2] of 173 ng/mL. It also gave a concentration at 2 h [2] of 99.7 ng/mL, a concentration at 4 h [2] of 45.3 ng/mL and a concentration at 6 h (female, 0.75 mg/kg, Anatabine 0.75 mg/kg, female, 6 hr (1st 6 hr line)) of 18.3 ng/mL. The concentration at 6 h (female, 0.75 mg/kg, Anatabine 0.75 mg/kg, female, 6 hr (2nd 6 hr line)) was 23 ng/mL, the concentration at 8 h [2] was 11 ng/mL and the concentration at 0.5 h (female, 1 mg/kg, Anatabine 1.0 mg/kg, female, 0.5 hr (1st 0.5 hr line)) was 237 ng/mL. It also gave a concentration at 0.5 h (female, 1 mg/kg, Anatabine 1.0 mg/kg, female, 0.5 hr (2nd 0.5 hr line)) of 368 ng/mL, a concentration at 1 h [3] of 229 ng/mL and a concentration at 2 h [3] of 164 ng/mL. It also gave a concentration at 4 h [3] of 60.7 ng/mL, a concentration at 6 h (female, 1 mg/kg, Anatabine 1.0 mg/kg, female, 6 hr (1st 6 hr line)) of 29.3 ng/mL and a concentration at 6 h (female, 1 mg/kg, Anatabine 1.0 mg/kg, female, 6 hr (2nd 6 hr line)) of 23 ng/mL. For the same compound, the concentration at 8 h [3] was 17.7 ng/mL, the AUC(0-inf) (female, 0.1 mg/kg) was 37.9 ± 15.9 ng·h/mL and the MRT (female, 0.1 mg/kg) was 2.55 ± 0.93 h. It also gave a Vd (female, 0.1 mg/kg) of 6.52 ± 0.66 L/kg, an AUC(0-inf) (female, 0.75 mg/kg) of 544 ± 62.7 ng·h/mL and a Vd (female, 0.75 mg/kg) of 3.19 ± 0.15 L/kg. It also gave a half-life (female, 0.75 mg/kg, anatabine 0.75 mg/kg single i.v., female rats) of 1.73 ± 0.03 h, an AUC(0-inf) (female, 1 mg/kg) of 789 ng·h/mL and an MRT (female, 1 mg/kg) of 2.8 h. The Vd (female, 1 mg/kg) was 3.16 ± 0.15 L/kg, the half-life (female, 1 mg/kg, anatabine 1.0 mg/kg single i.v., female rats) was 1.84 h and the concentration at 0.5 h (male, 0.1 mg/kg, Anatabine 0.1 mg/kg, male, 0.5 hr (1st 0.5 hr line)) was 15.3 ng/mL. The concentration at 0.5 h (male, 0.1 mg/kg, Anatabine 0.1 mg/kg, male, 0.5 hr (2nd 0.5 hr line)) was 31.7 ng/mL, the concentration at 1 h [4] was 12.3 ng/mL and the concentration at 2 h [4] was 6.3 ng/mL. The concentration at 4 h [4] was 3 ng/mL, the concentration at 6 h (male, 0.1 mg/kg, Anatabine 0.1 mg/kg, male, 6 hr (2nd 6 hr line)) was 5 ng/mL and the concentration at 0.5 h (male, 0.75 mg/kg, Anatabine 0.75 mg/kg, male, 0.5 hr (1st 0.5 hr line)) was 181 ng/mL. It also gave a concentration at 0.5 h (male, 0.75 mg/kg, Anatabine 0.75 mg/kg, male, 0.5 hr (2nd 0.5 hr line)) of 302 ng/mL, a concentration at 1 h [5] of 152 ng/mL and a concentration at 2 h [5] of 83.7 ng/mL. The concentration at 4 h [5] was 34.7 ng/mL, the concentration at 6 h (male, 0.75 mg/kg, Anatabine 0.75 mg/kg, male, 6 hr (1st 6 hr line)) was 14 ng/mL and the concentration at 6 h (male, 0.75 mg/kg, Anatabine 0.75 mg/kg, male, 6 hr (2nd 6 hr line)) was 22 ng/mL. It also gave a concentration at 8 h [5] of 9 ng/mL, a concentration at 0.5 h (male, 1 mg/kg, Anatabine 1.0 mg/kg, male, 0.5 hr (1st 0.5 hr line)) of 272 ng/mL and a concentration at 0.5 h (male, 1 mg/kg, Anatabine 1.0 mg/kg, male, 0.5 hr (2nd 0.5 hr line)) of 399 ng/mL. It also gave a concentration at 1 h [6] of 234 ng/mL, a concentration at 2 h [6] of 123 ng/mL and a concentration at 4 h [6] of 42.3 ng/mL. The concentration at 6 h (male, 1 mg/kg, Anatabine 1.0 mg/kg, male, 6 hr (1st 6 hr line)) was 18 ng/mL, the concentration at 6 h (male, 1 mg/kg, Anatabine 1.0 mg/kg, male, 6 hr (2nd 6 hr line)) was 27 ng/mL and the concentration at 8 h [6] was 7.7 ng/mL. The AUC(0-inf) (male, 0.1 mg/kg) was 32 ± 7.7 ng·h/mL, the MRT (male, 0.1 mg/kg) was 2.03 ± 0.41 h and the Vd (male, 0.1 mg/kg) was 5.29 ± 0.49 L/kg. It also gave a half-life (male, 0.1 mg/kg, anatabine 0.1 mg/kg single i.v., male rats) of 1.25 ± 0.32 h, an AUC(0-inf) (male, 0.75 mg/kg) of 464 ± 36.2 ng·h/mL and an MRT (male, 0.75 mg/kg) of 2.5 ± 0.19 h. For the same compound, the Vd (male, 0.75 mg/kg) was 3.48 ± 0.18 L/kg, the AUC(0-inf) (male, 1 mg/kg) was 631 ng·h/mL and the MRT (male, 1 mg/kg) was 2.18 h. For the same compound, the Vd (male, 1 mg/kg) was 3.01 ± 0.12 L/kg, the half-life (male, 1 mg/kg, anatabine 1.0 mg/kg single i.v., male rats) was 1.44 h and the “plasma concentration between approximately 6 and 8 hours” value (nicotine 0.4 mg/kg, anatabine 0.1 mg/kg single i.v., rats) was “below the limits of quantitation”.
